Holding throughout (type): functional, cell membranes, Membrane vesicle
Common to all, as to design: scale not given: the % may be the effect or the level left

Data set [1] addresses T1, MRP4 (ABCC4) (Homo sapiens, UniProt O15439).
T1 sequence (O15439 whole entry): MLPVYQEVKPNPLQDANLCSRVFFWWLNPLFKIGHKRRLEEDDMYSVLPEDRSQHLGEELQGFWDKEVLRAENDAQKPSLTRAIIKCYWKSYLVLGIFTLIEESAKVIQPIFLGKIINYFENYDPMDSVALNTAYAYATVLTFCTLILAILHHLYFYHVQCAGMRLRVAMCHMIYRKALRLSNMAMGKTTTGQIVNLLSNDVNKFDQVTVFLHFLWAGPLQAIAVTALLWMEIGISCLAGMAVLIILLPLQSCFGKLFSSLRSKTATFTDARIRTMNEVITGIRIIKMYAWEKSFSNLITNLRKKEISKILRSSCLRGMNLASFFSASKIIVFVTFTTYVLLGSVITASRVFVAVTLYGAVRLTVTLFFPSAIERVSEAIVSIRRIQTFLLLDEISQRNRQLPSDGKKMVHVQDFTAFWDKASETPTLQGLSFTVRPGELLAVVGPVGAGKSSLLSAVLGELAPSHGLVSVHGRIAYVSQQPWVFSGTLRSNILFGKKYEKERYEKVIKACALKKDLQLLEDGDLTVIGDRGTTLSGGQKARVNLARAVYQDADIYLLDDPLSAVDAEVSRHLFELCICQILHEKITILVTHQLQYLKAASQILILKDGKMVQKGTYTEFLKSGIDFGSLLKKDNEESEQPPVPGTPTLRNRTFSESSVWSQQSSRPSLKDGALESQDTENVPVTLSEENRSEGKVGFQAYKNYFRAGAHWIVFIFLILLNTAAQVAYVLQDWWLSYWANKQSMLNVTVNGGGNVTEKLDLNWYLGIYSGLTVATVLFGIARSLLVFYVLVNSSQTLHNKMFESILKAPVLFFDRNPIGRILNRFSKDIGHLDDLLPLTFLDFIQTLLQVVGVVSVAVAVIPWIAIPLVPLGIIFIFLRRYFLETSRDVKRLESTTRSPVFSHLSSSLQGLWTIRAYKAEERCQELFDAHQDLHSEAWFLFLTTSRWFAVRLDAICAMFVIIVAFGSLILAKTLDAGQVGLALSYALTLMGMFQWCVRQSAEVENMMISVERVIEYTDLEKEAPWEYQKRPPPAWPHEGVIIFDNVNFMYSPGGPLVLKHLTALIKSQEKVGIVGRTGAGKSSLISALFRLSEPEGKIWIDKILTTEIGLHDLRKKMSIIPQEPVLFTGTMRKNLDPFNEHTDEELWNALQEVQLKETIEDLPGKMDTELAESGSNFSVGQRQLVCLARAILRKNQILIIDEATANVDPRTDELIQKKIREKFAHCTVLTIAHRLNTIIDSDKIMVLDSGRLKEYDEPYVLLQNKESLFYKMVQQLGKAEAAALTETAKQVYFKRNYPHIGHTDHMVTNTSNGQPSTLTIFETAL
The experiment in a line: TP_TRANSPORTER: inhibition of Taurocholate uptake by Taurochenodeoxycholate at a concentration of 20uM in membrane vesicles from MRP4-expressing V79 cells. The following applies: hamster, probe taurocholate, read-out: Activity.

The target in data set [2] is T1, MRP4 (ABCC4). The experiment in a line: TP_TRANSPORTER: inhibition of Taurocholate uptake in the presence of Lithoglycocholate at a concentration of 20uM in membrane vesicles from MRP4-expressing V79 cells. The following applies: hamster, probe taurocholate, read-out: Activity.
The target of data set [3] is T2, ATP-binding cassette sub-family C member 4 (Homo sapiens, UniProt O15439).
T2 sequence (O15439 whole entry): T1 sequence (O15439 whole entry)
The experiment in a line: TP_TRANSPORTER: inhibition of Taurocholate uptake in the presence of Probenecid at a concentration of 20uM in membrane vesicles from MRP4-expressing V79 cells. The following applies: hamster, v79, 20 µM.

Data set [4] addresses T1, MRP4 (ABCC4). The experiment in a line: TP_TRANSPORTER: inhibition of Taurocholate uptake in the presence of Dipyridamole at a concentration of 20uM in membrane vesicles from MRP4-expressing V79 cells. The following applies: hamster, probe taurocholate, read-out: Activity.
Data set [5] has as its target T1, MRP4 (ABCC4). The experiment in a line: TP_TRANSPORTER: inhibition of Taurocholate uptake in the presence of Folate at a concentration of 20uM in membrane vesicles from MRP4-expressing V79 cells. As to conditions: hamster, probe taurocholate, read-out: Activity.
Data set [6] has as its target T1, MRP4 (ABCC4). The experiment in a line: TP_TRANSPORTER: inhibition of Taurocholate uptake in the presence of Dehydroepiandrosterone-3-sulfate at a concentration of 5uM in membrane vesicles from MRP4-expressing V79 cells. The following applies: hamster, probe taurocholate, read-out: Activity.
In data set [7] the target is T1, MRP4 (ABCC4). The experiment in a line: TP_TRANSPORTER: inhibition of Taurocholate uptake in the presence of Ursodeoxycholate at a concentration of 20uM in membrane vesicles from MRP4-expressing V79 cells. The following applies: hamster, probe taurocholate, read-out: Activity.
Data set [8] has as its target T2, ATP-binding cassette sub-family C member 4. The experiment in a line: TP_TRANSPORTER: inhibition of Taurocholate uptake in the presence of Lithocholate at a concentration of 20uM in membrane vesicles from MRP4-expressing V79 cells. As to conditions: hamster, v79, 20 µM.
For data set [9] the target is unchanged. The experiment in a line: TP_TRANSPORTER: inhibition of Taurocholate uptake in the presence of MK-571 at a concentration of 20uM in membrane vesicles from MRP4-expressing V79 cells. As to conditions: hamster, v79, 20 µM.
For data set [10], the target named is T1, MRP4 (ABCC4). The experiment in a line: TP_TRANSPORTER: inhibition of Taurocholate uptake in the presence of Glycocholate at a concentration of 20uM in membrane vesicles from MRP4-expressing V79 cells. As to conditions: hamster, probe taurocholate, read-out: Activity.
For data set [11], the target named is T1, MRP4 (ABCC4). The experiment in a line: TP_TRANSPORTER: inhibition of Taurocholate uptake in the presence of Tauroursodeoxycholate at a concentration of 20uM in membrane vesicles from MRP4-expressing V79 cells. The following applies: hamster, probe taurocholate, read-out: Activity.
Data set [12] deals with T1, MRP4 (ABCC4). The experiment in a line: TP_TRANSPORTER: inhibition of Taurocholate uptake in the presence of Methotrexate at a concentration of 20uM in membrane vesicles from MRP4-expressing V79 cells. The following applies: hamster, probe taurocholate, read-out: Activity.

In the case of `C[C@H](CCC(=O)NCCS(=O)(=O)O)[C@H]1CC[C@H]2[C@@H]3[C@H](O)C[C@@H]4C[C@H](O)CC[C@]4(C)[C@H]3CC[C@]12C` [TAUROCHENODEOXYCHOLATE], the activity at 20 µM on MRP4 (ABCC4) [1] came to 11%.

Regarding `C[C@H](CCC(=O)NCC(=O)O)[C@H]1CC[C@H]2[C@@H]3CC[C@@H]4C[C@H](O)CC[C@]4(C)[C@H]3CC[C@]12C` [LITHOGLYCOCHOLATE], on MRP4 (ABCC4) [2], the activity at 20 µM is 9%.

Consider `CCCN(CCC)S(=O)(=O)c1ccc(C(=O)O)cc1` [PROBENECID], for which the Activity in data set [3] is listed as 52%. As for `OCCN(CCO)c1nc(N2CCCCC2)c2nc(N(CCO)CCO)nc(N3CCCCC3)c2n1` [DIPYRIDAMOLE], the activity at 20 µM on MRP4 (ABCC4) [4] came out at 32%. Take `Nc1nc2ncc(CNc3ccc(C(=O)N[C@@H](CCC(=O)O)C(=O)O)cc3)nc2c(=O)[nH]1` [FOLIC ACID]: the activity at 20 µM at MRP4 (ABCC4) [5] is 63%. As for `C[C@]12CC[C@H](OS(=O)(=O)O)CC1=CC[C@@H]1[C@@H]2CC[C@]2(C)C(=O)CC[C@@H]12` [PRASTERONE SULFURIC ACID], at MRP4 (ABCC4) [6], the activity at 5 µM came to 34%.

In the case of `C[C@H](CCC(=O)O)[C@H]1CC[C@H]2[C@@H]3[C@@H](O)C[C@@H]4C[C@H](O)CC[C@]4(C)[C@H]3CC[C@]12C` [URSODIOL], the activity at 20 µM at MRP4 (ABCC4) [7] is 18%. As to `C[C@H](CCC(=O)O)[C@H]1CC[C@H]2[C@@H]3CC[C@@H]4C[C@H](O)CC[C@]4(C)[C@H]3CC[C@]12C` [LITHOCHOLIC ACID], in [8], the Activity is 68%. For the molecule `CN(C)C(=O)CCSC(SCCC(=O)O)c1cccc(/C=C/c2ccc3ccc(Cl)cc3n2)c1` (configuration not stated) [MK-571], in data set [9], the Activity was found to be 9%. Turning to `C[C@H](CCC(=O)NCC(=O)O)[C@H]1CC[C@H]2[C@@H]3[C@H](O)C[C@@H]4C[C@H](O)CC[C@]4(C)[C@H]3C[C@H](O)[C@]12C` [GLYCOCHOLIC ACID], the activity at 20 µM on MRP4 (ABCC4) [10] turned out to be 45%. Regarding `C[C@H](CCC(=O)NCCS(=O)(=O)O)[C@H]1CC[C@H]2[C@@H]3[C@@H](O)C[C@@H]4C[C@H](O)CC[C@]4(C)[C@H]3CC[C@]12C` [TAURURSODIOL], the activity at 20 µM at MRP4 (ABCC4) [11] was 26%. Consider `CN(Cc1cnc2nc(N)nc(N)c2n1)c1ccc(C(=O)N[C@@H](CCC(=O)O)C(=O)O)cc1` [METHOTREXATE], for which the activity at 20 µM at MRP4 (ABCC4) [12] amounted to 39%.

Source of the values: ChEMBL document CHEMBL2073754, “Cotransport of reduced glutathione with bile salts by MRP4 (ABCC4) localized to the basolateral hepatocyte membrane” (Hepatology, 2003).
